Experimental findings from patent US12678419B2, “Compounds” (Sitryx Therapeutics Limited, priority 2020, dated 2026) are described below.

Data set [1] concerns IL-6 cytokine output from THP-1s. Kind of data set: THP-1 AlphaLISA IL-6 cytokine assay. In kind it is cell-based. Conditions: Homo sapiens, LPS then nigericin, Table 1. The essentials: (§1)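 PMA-differentiated THP-1 cells (72 h) pre-incubated with compound for 30 min, LPS-stimulated for 24 h, then nigericin for 1 h, all at 37° C. IL-1β and IL-6 in supernatants measured by AlphaLISA. IC50 from concentration-response of % inhibition normalized to ±LPS controls.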
In general terms: In Alpha technology, singlet oxygen from a donor bead excites a nearby acceptor bead.

Data set [2] is described as follows: Hepatocyte stability assay, mouse. In kind it is in vitro ADME. Conditions: mouse, cryopreserved hepatocytes, 10 μM compound, read-out: T½. The essentials:
(§2)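 Cryopreserved hepatocytes (viability >70%) at 0.5×10^6 cells/mL in Leibovitz buffer, compound 10 μM (0.1% DMSO) at 37° C. Samples at 0, 5, 10, 20, 40, 60 min quenched in acetonitrile and analysed by LC-MS/MS, with buffer-only incubations as control. Half-life and Clint (μL min^−1 10^−6 cells) from ln % remaining versus time.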

Another data set concerns mouse hepatocytes. Nature of the data set: Hepatocyte stability assay, mouse. Type of data set: in vitro ADME. The note with it: 10 μM compound. The essentials:
as §2

Data set [3] is described as follows: Hepatocyte stability assay, human. Type of data set: in vitro ADME. The note with it: human, cryopreserved hepatocytes, 10 μM compound, read-out: T½. The essentials:
as §2

The subject of another data set is human hepatocytes. Nature of the data set: Hepatocyte stability assay, human. The note with it: 10 μM compound. Type of data set: in vitro ADME. Put shortly: as §2
In data set [4] the test system is NRF2 (nuclear factor erythroid 2-related factor 2). Nature of the data set: NRF2 +/-GSH activation assay (DiscoverX PathHunter NRF2 translocation kit, U2OS cells). Type of data set: cell-based. The note with it: for Emax (%) +GSH / Emax (%) −GSH: normalised to dimethyl fumarate high control.
Data set [5] concerns IL-1β cytokine output from THP-1s. Nature of the data set: THP-1 AlphaLISA IL-1β cytokine assay. Type of data set: cell-based. The note with it: Homo sapiens, LPS then nigericin, Table 1. Put shortly:
as §1

The mark [6] stands for this setting: THP-1, differentiated THP-1 cells.

In general, IC50 refers to the concentration needed to halve the response being measured. A low value points to greater potency in that assay. One may read the EC50 as the concentration giving half of the maximal effect. As to `C=C(CC(=O)OC1Cc2ccc(Cl)cc2C1)C(=O)OCC(=O)O` (centres unmarked) [Example 1, 2-((4-((5-chloro-2,3-dihydro-1H-inden-2-yl)oxy)-2-methylene-4-oxobutanoyl)oxy)acetic acid], the concentration for half-maximal inhibition (IC50) in data set [1] (setting [6]) was determined as 10.2 µM; in data set [5] (setting [6]), 29.2 µM. The half-life at 10 μM in data set [2] turned out to be 41 min; in data set [3], 449 min. The “Clint (μL min^−1 10^−6 cells)” value in the data set on mouse hepatocytes stood at 46 μL min^−1 10^−6 cells; in the data set on human hepatocytes, 3 μL min^−1 10^−6 cells. In addition, the EC50 came to 34.6 µM in data set [4] (+GSH) and 25.6 µM in data set [4] (−GSH). Further, the “Emax (%) +GSH” value in data set [4] (+GSH) stood at 125%. Also, the “Emax (%) −GSH” value in data set [4] (−GSH) came to 139%.

With `C=C(CC(=O)OC1Cc2cc(Cl)c(Cl)cc2C1)C(=O)OCC(=O)O` [Example 4, 2-((4-((5,6-dichloro-2,3-dihydro-1H-inden-2-yl)oxy)-2-methylene-4-oxobutanoyl)oxy)acetic acid], the IC50 stood at 4.6 µM in data set [1] (setting [6]) and 12 µM in data set [5] (setting [6]). For the same molecule, the half-life at 10 μM in data set [2] stood at 16 min; in data set [3], 119 min. In addition, the “Clint (μL min^−1 10^−6 cells)” value in the data set on mouse hepatocytes came out at 83 μL min^−1 10^−6 cells; with human hepatocytes, 13 μL min^−1 10^−6 cells. Also, the EC50 in data set [4] (+GSH) stood at 16.5 µM; in data set [4] (−GSH) it was 7.5 µM. Besides, the “Emax (%) +GSH” value in data set [4] (+GSH) is on record as 182%. The “Emax (%) −GSH” value in data set [4] (−GSH) was 196%.

Regarding `C=C(CC(=O)OC1(C)Cc2ccc(Cl)cc2C1)C(=O)OCC(=O)O` (centres unmarked) [Example 7, 2-((4-((5-chloro-2-methyl-2,3-dihydro-1H-inden-2-yl)oxy)-2-methylene-4-oxobutanoyl)oxy)acetic acid], the IC50 was 8.2 µM in data set [1] (differentiated THP-1 cells) and over 31.6 µM in data set [5] (differentiated THP-1 cells). The half-life at 10 μM in data set [2] turned out to be 10 min; in data set [3] it was 86 min. The entries for the “Clint (μL min^−1 10^−6 cells)” value in the data set on mouse hepatocytes and with human hepatocytes were 142 μL min^−1 10^−6 cells and 17 μL min^−1 10^−6 cells, respectively. In addition, the EC50 in data set [4] (+GSH) amounted to 22.3 µM; in data set [4] (−GSH), 14.5 µM. For the same molecule, the “Emax (%) +GSH” value in data set [4] (+GSH) turned out to be 135%. In addition, the “Emax (%) −GSH” value in data set [4] (−GSH) was found to be 155%.

For `C=C(CC(=O)OC1(C)Cc2cc(Cl)c(Cl)cc2C1)C(=O)OCC(=O)O` [Example 21, 2-((4-((5,6-dichloro-2-methyl-2,3-dihydro-1H-inden-2-yl)oxy)-2-methylene-4-oxobutanoyl)oxy)acetic acid], the IC50 in data set [1] (setting [6]) came to 3.2 µM; in data set [5] (setting [6]), 7.9 µM. For the same molecule, the half-life at 10 μM was determined as 3 min in data set [2] and 35 min in data set [3]. Moreover, the “Clint (μL min^−1 10^−6 cells)” value in the data set on mouse hepatocytes amounted to 483 μL min^−1 10^−6 cells; with human hepatocytes, 37 μL min^−1 10^−6 cells. Moreover, the figures for the EC50 in data set [4] (+GSH) and in data set [4] (−GSH) were 4 µM and 5.6 µM, respectively. Also, the “Emax (%) +GSH” value in data set [4] (+GSH) was found to be 55%. In data set [4] (−GSH), the “Emax (%) −GSH” value is 151%.

On to `C=C(CC(=O)OC1C(C)(C)c2cc(F)c(F)cc2C1(C)C)C(=O)OCC(=O)O` [Example 26, 2-((4-((5,6-difluoro-1,1,3,3-tetramethyl-2,3-dihydro-1H-inden-2-yl)oxy)-2-methylene-4-oxobutanoyl)oxy)acetic acid], for which the values for the IC50 in data set [1] (setting [6]) and in data set [5] (setting [6]) were 3 µM and 7.9 µM, respectively. The results for the half-life at 10 μM in data set [2] and in data set [3] were under 3 min and 166 min, respectively. In addition, the “Clint (μL min^−1 10^−6 cells)” value is over 460 μL min^−1 10^−6 cells with mouse hepatocytes and 9 μL min^−1 10^−6 cells in the data set with human hepatocytes. The EC50 in data set [4] (+GSH) was found to be 7.7 µM; in data set [4] (−GSH), 4.1 µM. Also, the “Emax (%) +GSH” value in data set [4] (+GSH) was found to be 145%. Moreover, the “Emax (%) −GSH” value in data set [4] (−GSH) came out at 216%.
